# Key:
# PDE4B2 = PDE4B2 (Homo sapiens, UniProt Q07343); settings: for IC50: read-out: PDE4B2 IC50, enzyme assay
# Flpin-293-PDE4B2 cells = Flpin-293-PDE4B2 cells (Homo sapiens, UniProt Q07343); test: cell-based; settings: for inhibition at 0.001 µM: read-out: Cell Inhibition % @1 nM, 1 nM, Flpin-293-PDE4B2 cells; for inhibition at 0.01 µM: read-out: Cell Inhibition % @10 nM, 10 nM, Flpin-293-PDE4B2 cells; for inhibition at 0.1 µM: read-out: Cell Inhibition % @100 nM, 100 nM, Flpin-293-PDE4B2 cells
# PDE4D2 = PDE4D2 (Homo sapiens, UniProt Q08499); test: PDE4D2 enzyme experiment (AMP-Glo); settings: read-out: PDE4D2 IC50 Binding; enzyme assay
# Chain of PDE4D2 (Q08499 303-809 limits assumed): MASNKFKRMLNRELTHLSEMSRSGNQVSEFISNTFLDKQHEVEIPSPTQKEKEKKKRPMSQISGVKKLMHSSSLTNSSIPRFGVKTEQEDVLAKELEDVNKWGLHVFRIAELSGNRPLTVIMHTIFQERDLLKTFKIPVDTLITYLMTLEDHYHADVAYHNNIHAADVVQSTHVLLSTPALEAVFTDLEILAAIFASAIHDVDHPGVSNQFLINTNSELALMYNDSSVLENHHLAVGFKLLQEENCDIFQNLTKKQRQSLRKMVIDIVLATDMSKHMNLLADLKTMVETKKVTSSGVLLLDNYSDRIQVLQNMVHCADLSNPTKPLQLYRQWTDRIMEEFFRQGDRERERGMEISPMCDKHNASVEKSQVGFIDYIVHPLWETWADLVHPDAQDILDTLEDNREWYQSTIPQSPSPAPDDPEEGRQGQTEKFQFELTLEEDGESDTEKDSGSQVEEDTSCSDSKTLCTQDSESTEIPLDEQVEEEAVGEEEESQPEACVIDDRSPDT
# Chain of PDE4B2 (Q07343 1-564 isoform Q07343-2, species assumed): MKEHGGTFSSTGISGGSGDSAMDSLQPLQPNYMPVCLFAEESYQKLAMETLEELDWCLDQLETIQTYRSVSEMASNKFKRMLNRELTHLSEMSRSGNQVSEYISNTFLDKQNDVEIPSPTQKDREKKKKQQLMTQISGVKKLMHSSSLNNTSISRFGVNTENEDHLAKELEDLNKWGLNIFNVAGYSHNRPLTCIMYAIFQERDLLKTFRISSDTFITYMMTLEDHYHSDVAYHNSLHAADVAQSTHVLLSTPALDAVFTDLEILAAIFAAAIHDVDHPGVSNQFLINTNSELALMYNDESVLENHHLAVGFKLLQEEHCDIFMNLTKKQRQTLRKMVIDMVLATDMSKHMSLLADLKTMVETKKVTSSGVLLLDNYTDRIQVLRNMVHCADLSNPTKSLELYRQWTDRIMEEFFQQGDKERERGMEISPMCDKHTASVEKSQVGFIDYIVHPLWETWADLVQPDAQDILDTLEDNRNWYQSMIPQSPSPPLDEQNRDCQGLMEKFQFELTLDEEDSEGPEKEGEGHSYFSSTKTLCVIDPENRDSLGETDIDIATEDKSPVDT
# Chain of Flpin-293-PDE4B2 cells (Q07343 1-564 isoform Q07343-2): as the sequence (Q07343 1-564 isoform Q07343-2, species assumed) above
IC50 (PDE4B2) [nM],inhibition at 0.001 µM (Flpin-293-PDE4B2 cells) [%],inhibition at 0.01 µM (Flpin-293-PDE4B2 cells) [%],inhibition at 0.1 µM (Flpin-293-PDE4B2 cells) [%],IC50 (PDE4D2) [nM],PDE4B2 Enzyme Inhibition % @10 nM (PDE4B2; 10 nM) [%],PDE4B2 Enzyme Inhibition % @100 nM (PDE4B2; 100 nM) [%],Compound
0.17,11.9,56.7,96.7,0.3,–,–,O=S1(=O)C[C@H]2C[C@@H]1CN2c1ccc2c(c1)CCN(c1nc3c(c(NC4(CO)CCC4)n1)[S+]([O-])CC3)C2 (stereo partly drawn) [Compound 163]
0.194,7.33,72.3,99.9,0.596,–,–,C[C@H]1c2ccc(N3CCCC3)cc2CCN1c1nc2c(c(N[C@@H]3CC[C@H]3O)n1)[S+]([O-])CC2 (stereo partly drawn) [Compound 201]
0.182,8.9,35.2,94.3,0.851,–,–,[O-][S+]1CCc2nc(N3CCc4cc(N5CCCC5)ccc4C3)nc(Nc3cnn(CCO)c3)c21 (stereo not drawn) [Compound 191]
–,–,–,–,0.876,–,–,"(R)-2-(7-fluoro-6-(pyrrolidin-1-yl)-3,4-dihydroisoquinolin-2(1H)-yl)-4-((1-(hydroxymethyl)cyclobutyl)amino)-6,7-dihydrothieno[3,2-d]pyrimidine 5-oxide [Compound 181]"
–,–,–,–,1.21,–,–,C[C@H]1c2ccc(N3CCCC3)cc2CCN1c1nc2c(c(Nc3cnn(CCO)c3)n1)[S+]([O-])CC2 (stereo partly drawn) [Compound 210]
–,–,–,–,–,20.43,78.77,"(R)-4-((1-(hydroxymethyl)cyclobutyl)amino)-2-(6-(1-methyl-2,5-dihydro-1H-pyrrol-3-yl)-3,4-dihydroisoquinolin-2(1H)-yl)-6,7-dihydrothieno[3,2-d]pyrimidine 5-oxide [Compound 169]"
–,28.5,92.4,101,–,–,–,C[C@H]1c2ccc(N3CCCC3)cc2CCN1c1nc2c(c(NC3CCOCC3)n1)[S+]([O-])CC2 (stereo partly drawn) [Compound 205]
–,11.3,73.7,99.2,–,–,–,Cn1cc(Nc2nc(N3CCc4cc(N5CC6CC6C5)ccc4C3)nc3c2[S+]([O-])CC3)cn1 (stereo not drawn) [Compound 223]
–,4.93,24.9,51.4,–,–,–,NC(=O)c1ccc2c(c1)CCN(c1nc3c(c(NC4(CO)CCC4)n1)[S+]([O-])CC3)C2 (stereo not drawn) [Compound 75]
–,19.1,77.5,99.9,–,–,–,COc1ccc2sc3c(c2c1)CCN(c1nc2c(c(NC4(CO)CCC4)n1)[S+]([O-])CC2)C3 (stereo not drawn) [Compound 82]
–,15,65.8,97.2,–,–,–,[O-][S+]1CCc2nc(N3CCc4cc(-n5ccnc5)ccc4C3)nc(NC3(CO)CCC3)c21 (stereo not drawn) [Compound 90]
–,30.8,94.4,100,–,–,–,C[C@H]1c2ccc(N3CCCC3)cc2CCN1c1nc2c(c(Nc3cnn(C)c3)n1)[S+]([O-])CC2 (stereo partly drawn) [Compound 207]
–,4.06,36.5,94.3,–,–,–,[O-][S+]1CCc2nc(N3CCc4cc(N5CCC(CO)C5)ccc4C3)nc(NC3(CO)CCC3)c21 (stereo not drawn) [Compound 171]
–,2.82,52.5,98.1,–,–,–,[O-][S+]1CCc2nc(N3CC[C@@H]4c5cccc(Cl)c5OC[C@H]4C3)nc(NC3(CO)CCC3)c21 (stereo partly drawn) [Compound 107]
–,-0.08,35.9,95.5,–,–,–,Nc1nc2cc(Cl)ccc2c2c1CN(c1nc3c(c(NC4(CO)CCC4)n1)[S+]([O-])CC3)CC2 (stereo not drawn) [Compound 102]
–,5.79,47.8,97.3,–,–,–,[O-][S+]1CCc2nc(N3CC[C@@H]4c5ccccc5OC[C@H]4C3)nc(NC3(CO)CCC3)c21 (stereo partly drawn) [Compound 83]
–,3.67,28.8,93.5,–,–,–,[O-][S+]1CCc2nc(N3CCc4cc(N5CC(F)(F)C5)ccc4C3)nc(NC3(CO)CCC3)c21 (stereo not drawn) [Compound 88]

# Continued, compound first:
Compound,IC50 (PDE4B2) [nM],inhibition at 0.001 µM (Flpin-293-PDE4B2 cells) [%],inhibition at 0.01 µM (Flpin-293-PDE4B2 cells) [%],inhibition at 0.1 µM (Flpin-293-PDE4B2 cells) [%],IC50 (PDE4D2) [nM],PDE4B2 Enzyme Inhibition % @10 nM (PDE4B2; 10 nM) [%],PDE4B2 Enzyme Inhibition % @100 nM (PDE4B2; 100 nM) [%]
CN(C)C1CCN(c2ccc3c(c2)CCN(c2nc4c(c(NC5(CO)CCC5)n2)[S+]([O-])CC4)C3)C1 (stereo not drawn) [Compound 148],0.7,3.99,37.3,92.1,1.1,–,–
C[C@H]1CN(c2nc3c(c(NC4(CO)CCC4)n2)[S+]([O-])CC3)Cc2ccc(Cl)cc21 (stereo partly drawn) [Compound 120],0.98,4.1,7.4,23.1,–,–,–
CC(C)(O)[C@@H]1CCN(c2ccc3c(c2)CCN(c2nc4c(c(NC5(CO)CCC5)n2)[S+]([O-])CC4)C3)C1 (stereo partly drawn) [Compound 173],0.386,8.43,65.7,99.5,0.391,–,–
[O-][S+]1CCc2nc(N3CCc4cc(N5CCCCC5)ccc4C3)nc(NC3(CO)CCC3)c21 (stereo not drawn) [Compound 143],0.113,13.9,72.5,100,0.252,–,–
[O-][S+]1CCc2nc(N3CC[C@@H]4c5ccc(Cl)nc5OC[C@H]4C3)nc(NC3(CO)CCC3)c21 (stereo partly drawn) [Compound 119],1.37,14,55.1,96,2.79,–,–
CN1C[C@@H]2CCN(c3ccc4c(c3)CCN(c3nc5c(c(NC6(CO)CCC6)n3)[S+]([O-])CC5)C4)[C@@H]2C1 (stereo partly drawn) [Compound 162],0.589,10.7,52.8,93.8,0.584,–,–
[O-][S+]1CCc2nc(N3CCc4cc(N5CCCC5)ccc4C3)nc(Nc3cn[nH]c3)c21 (stereo not drawn) [Compound 194],0.333,4.28,33.6,92.9,1.08,–,–
[O-][S+]1CCc2nc(N3CCc4cc(N5CCCC5)ccc4C3)nc(NC3(CO)CC3)c21 (stereo not drawn) [Compound 186],0.0646,24.7,93.2,101,0.155,–,–
[O-][S+]1CCc2nc(N3CCc4cc(N5CCCC5)ncc4C3)nc(NC3(CO)CCC3)c21 (stereo not drawn) [Compound 183],0.413,12.8,78.5,99.9,–,–,–
C[C@H]1c2ccc(N3CCCC3)cc2CCN1c1nc2c(c(Nc3cnn(C4COC4)c3)n1)[S+]([O-])CC2 (stereo partly drawn) [Compound 208],0.22,–,–,–,0.766,–,–
CN1C[C@H]2C[C@@H]1CN2c1ccc2c(c1)CCN(c1nc3c(c(NC4(CO)CCC4)n1)[S+]([O-])CC3)C2 (stereo partly drawn) [Compound 155],0.692,12,46.8,76.1,–,–,–
[O-][S+]1CCc2nc(N3CCc4nc(N5CCCC5)sc4C3)nc(NC3(CO)CCC3)c21 (stereo not drawn) [Compound 195],0.956,–,–,–,1.12,–,–
[O-][S+]1CCc2nc(N3CCc4cc(N5C[C@@H]6[C@@H](CO)[C@@H]6C5)ccc4C3)nc(NC3(CO)CCC3)c21 (stereo partly drawn) [Compound 174],0.197,–,–,–,0.231,–,–
[O-][S+]1CCc2nc(N3CC[C@@H]4c5cc(Cl)ccc5OC[C@H]4C3)nc(NC3(CO)CCC3)c21 (stereo partly drawn) [Compound 108],–,-0.82,37.4,95.1,–,–,–
[O-][S+]1CCc2nc(N3CCc4c(ncc5cc(Cl)ccc45)C3)nc(NC3(CO)CCC3)c21 (stereo not drawn) [Compound 100],–,6,47.7,97.3,–,–,–
Cn1cnc(Nc2nc(N3CCc4cc(N5CCCC5)ccc4C3)nc3c2[S+]([O-])CC3)c1 (stereo not drawn) [Compound 197],13.3,–,–,–,23.8,–,–
C[C@H]1c2ccc(N3CCCC3)cc2CCN1c1nc2c(c(Nc3nnn(C)n3)n1)[S+]([O-])CC2 (stereo partly drawn) [Compound 213],–,9.25,29.6,89,–,–,–
Cc1ccc2c(c1)OC[C@H]1CN(c3nc4c(c(NC5(CO)CCC5)n3)[S+]([O-])CC4)CC[C@H]21 (stereo partly drawn) [Compound 112],–,12.3,54.1,99.4,–,–,–
NC(=O)Nc1ccc(Nc2nc(N3CCc4cc(Cl)ccc4C3)nc3c2[S+]([O-])CC3)cc1 (stereo not drawn) [Compound 137],–,4.94,21.8,83.8,–,–,–
[O-][S+]1CCc2nc(N3CCc4ccc(Cl)cc4CC3)nc(NC3(CO)CCC3)c21 (stereo not drawn) [Compound 34],–,–,14,62,–,–,–
C[C@H]1c2ccc(N3CCCC3)cc2CCN1c1nc2c(c(Nc3cnn(C4CN(C)C4)c3)n1)[S+]([O-])CC2 (stereo partly drawn) [Compound 209],–,4.48,9.75,61.7,–,–,–
[O-][S+]1CCc2nc(N3CC[C@@H]4c5ccc(C(F)(F)F)cc5OC[C@H]4C3)nc(NC3(CO)CCC3)c21 (stereo partly drawn) [Compound 111],–,8.07,22.2,81.1,–,–,–
[O-][S+]1CCc2nc(N3CC[C@H]4c5cnc(Cl)cc5OC[C@@H]4C3)nc(NC3(CO)CCC3)c21 (stereo partly drawn) [Compound 117],–,5.32,17.3,61.6,–,–,–
[O-][S+]1CCc2nc(N3CCc4ccc(Cl)cc4C3)nc(NC3(CO)CCC3)c21 (stereo not drawn) [Compound 20],–,–,14.2,69.9,–,–,–
[O-][S+]1CCc2nc(N3CCc4cc(N5C[C@H]6COC[C@H]6C5)ccc4C3)nc(NC3(CO)CCC3)c21 (stereo partly drawn) [Compound 178],–,8.53,68,98.9,–,–,–
C[C@H]1c2ccc(N3CCCC3)cc2CCN1c1nc2c(c(Nc3ncnn3C)n1)[S+]([O-])CC2 (stereo partly drawn) [Compound 217],–,2.48,25,84.5,–,–,–

# From patent US20260285880A1, “SUBSTITUTED DIHYDROTHIENOPYRIMIDINE COMPOUND, PREPARATION METHOD THEREFOR, AND USE THEREOF” (SHANGHAI YIDI BIOTECHNOLOGY CO., LTD., priority 2023, published 2026)
